Measurements taken from patent US9695155B2, “Herbicidal substituted pyrimidinyloxy benzene compounds” (E. I. DU PONT DE NEMOURS AND COMPANY, priority 2013, dated 2017).

Experiments:
barnyardgrass [1] = assay: Test A postemergence; assay type: in vivo, Echinochloa crus-galli
Method in brief: (§1)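 Visual 0–100 rating (100 = complete control) taken about 10 d post-treatment relative to untreated checks. Preemergence: directed soil spray on sown loam/sand pots. Postemergence: seedlings 2–10 cm, 1–2 leaf. Non-phytotoxic solvent formulation with surfactant.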

morningglory = assay: Test C postemergence; assay type: in vivo, Ipomoea coccinea
Method in brief: (§2)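 Visual ratings on a 0–100 scale (100 = complete control) were made versus untreated controls after 13–15 greenhouse days. Chemicals in a surfactant-containing non-phytotoxic solvent were applied either preemergence to seeds in loam–sand soil or postemergence to 1- to 4-leaf plants 2–18 cm tall.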

barnyardgrass [2] = assay: Test B flooded paddy test; assay type: in vivo, Echinochloa crus-galli; conditions: Flood, 250 g ai/ha, 0 to 100 scale where 0 is no effect and 100 is complete control
Method in brief: (§3)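 Compound added straight to paddy water, with pots kept flooded 3 cm above soil, on plants grown to the 2-leaf stage. Visual scoring 0-100 (100 = complete control) against untreated controls after 13 to 15 greenhouse days.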

giant foxtail = assay: Test C postemergence; assay type: in vivo, Setaria faberii
Method in brief: as §2

yellow nutsedge = assay: Test C postemergence; assay type: in vivo, Cyperus esculentus
Method in brief: as §2

rice = assay: Test B flooded paddy test; assay type: in vivo, Oryza sativa; conditions: Flood, 250 g ai/ha, 0 to 100 scale where 0 is no effect and 100 is complete control
Method in brief: as §3

corn = assay: Test C postemergence; assay type: in vivo, Zea mays
Method in brief: as §2

sedge, umbrella = assay: Test B flooded paddy test; assay type: in vivo, Cyperus difformis; conditions: Flood, 250 g ai/ha, 0 to 100 scale where 0 is no effect and 100 is complete control
Method in brief: as §3

wheat = assay: Test A postemergence; assay type: in vivo, Triticum aestivum; conditions: for Plant response rating, Wheat: 0 to 100 scale where 0 is no effect and 100 is complete control
Method in brief: as §1

ragweed = assay: Test C postemergence; assay type: in vivo, Ambrosia elatior
Method in brief: as §2

soybean = assay: Test C postemergence; assay type: in vivo, Glycine max
Method in brief: as §2

wheat, winter = assay: Test C postemergence; assay type: in vivo, Triticum aestivum
Method in brief: as §2

Heteranthera limosa = assay: Test B flooded paddy test; assay type: in vivo; conditions: Flood, 250 g ai/ha, 0 to 100 scale where 0 is no effect and 100 is complete control
Method in brief: as §3

[3] = 31 g ai/ha, postemergence, visual rating, scale 0 to 100 (0 no effect, 100 complete control), 13 to 15 days
[4] = Postemergence, 31 g ai/ha, scale 0 to 100 (0 no effect, 100 complete control), 13 to 15 days
[5] = Postemergence, 62 g ai/ha, scale 0 to 100 (0 no effect, 100 complete control)
[6] = 16 g ai/ha, postemergence, visual rating, scale 0 to 100 (0 no effect, 100 complete control), 13 to 15 days

N#Cc1cccc(Oc2ncc(Cl)cn2)c1-n1cc(C(F)F)cn1 [Compound 253, 3-(5-chloropyrimidin-2-yl)oxy-2-[4-(difluoromethyl)-1H-pyrazol-1-yl]benzonitrile]
pest or weed control at 31 g/ha (barnyardgrass [1]; Echinochloa crus-galli, post-emergence, 240 h, 31 g ai/ha, 0 to 100 scale, 0 no effect, 100 complete control, read-out: Plant response rating, Barnyardgrass): 20% | pest or weed control at 125 g/ha (barnyardgrass [1]; Echinochloa crus-galli, post-emergence, 240 h, 125 g ai/ha, 0 to 100 scale, 0 no effect, 100 complete control, read-out: Plant response rating, Barnyardgrass): 100% | Morningglory plant response rating (morningglory; [3]): 75 | pest or weed control at 16 g/ha (morningglory; Ipomoea, post-emergence, 16 g ai/ha, postemergence, 0 is no effect, 100 is complete control, read-out: Plant response rating (0 to 100), Morningglory): 60% | pest or weed control at 125 g/ha (morningglory; Ipomoea, post-emergence, 125 g ai/ha, postemergence, visual rating, scale 0 to 100 (0 no effect, 100 complete control), read-out: Plant response rating, Morningglory): 85% | pest or weed control at 62 g/ha (morningglory; Ipomoea, post-emergence, Postemergence, 62 g ai/ha, scale 0 to 100 (0 no effect, 100 complete control), 13 to 15 days, read-out: Plant response rating, Morningglory): 75% | pest or weed control at 250 g/ha (barnyardgrass [2]; Echinochloa crus-galli, read-out: Plant response rating, Barnyardgrass): 40% | pest or weed control at 16 g/ha (giant foxtail; Setaria faberi, post-emergence, 16 g ai/ha, postemergence, 0 is no effect, 100 is complete control, read-out: Plant response rating (0 to 100), Foxtail, Giant): 10% | pest or weed control at 31 g/ha (giant foxtail; Setaria faberi, post-emergence, 31 g ai/ha, postemergence, visual rating, scale 0 to 100 (0 no effect, 100 complete control), 13 to 15 days, read-out: Foxtail, Giant plant response rating): 45% | pest or weed control at 125 g/ha (giant foxtail; Setaria faberi, post-emergence, 125 g ai/ha, postemergence, visual rating, scale 0 to 100 (0 no effect, 100 complete control), read-out: Plant response rating, Foxtail, Giant): 20% | pest or weed control at 62 g/ha (giant foxtail; Setaria faberi, post-emergence, Postemergence, 62 g ai/ha, scale 0 to 100 (0 no effect, 100 complete control), 13 to 15 days, read-out: Plant response rating, Foxtail, Giant): 25% | Nutsedge, Yellow plant response rating (yellow nutsedge; [3]): 5 | pest or weed control at 16 g/ha (yellow nutsedge; Cyperus, post-emergence, 16 g ai/ha, postemergence, 0 is no effect, 100 is complete control, read-out: Plant response rating (0 to 100), Nutsedge, Yellow): 5% | pest or weed control at 125 g/ha (yellow nutsedge; Cyperus, post-emergence, 125 g ai/ha, postemergence, visual rating, scale 0 to 100 (0 no effect, 100 complete control), read-out: Plant response rating, Nutsedge, Yellow): 5% | pest or weed control at 62 g/ha (yellow nutsedge; Cyperus, post-emergence, Postemergence, 62 g ai/ha, scale 0 to 100 (0 no effect, 100 complete control), 13 to 15 days, read-out: Plant response rating, Nutsedge, Yellow): 5% | plant injury at 250 g/ha (rice; Oryza sativa, read-out: Plant response rating, Rice): 25% | plant injury at 16 g/ha (corn; Zea mays, post-emergence, 16 g ai/ha, postemergence, 0 is no effect, 100 is complete control, read-out: Plant response rating (0 to 100), Corn): 5% | plant injury at 31 g/ha (corn; Zea mays, post-emergence, 31 g ai/ha, postemergence, visual rating, scale 0 to 100 (0 no effect, 100 complete control), 13 to 15 days, read-out: Corn plant response rating): 5% | Corn plant response rating (crop injury, 0 = no effect, 100 = complete kill) at 125 g/ha (corn; Zea mays, post-emergence, 125 g ai/ha, postemergence, visual rating, scale 0 to 100 (0 no effect, 100 complete control)): 25% | Corn plant response rating (crop injury, 0 = no effect, 100 = complete kill) at 62 g/ha (corn; Zea mays, post-emergence, Postemergence, 62 g ai/ha, scale 0 to 100 (0 no effect, 100 complete control), 13 to 15 days): 5% | pest or weed control at 250 g/ha (sedge, umbrella; Cyperus difformis, read-out: Plant response rating, Sedge, Umbrella): 85% | plant injury at 31 g/ha (wheat; Triticum aestivum, post-emergence, 240 h, 31 g ai/ha, 0 to 100 scale, 0 no effect, 100 complete control, read-out: Plant response rating, Wheat): 20% | plant injury at 125 g/ha (wheat; Triticum aestivum, post-emergence, 240 h, 125 g ai/ha, 0 to 100 scale, 0 no effect, 100 complete control, read-out: Plant response rating, Wheat): 30% | Ragweed plant response rating (ragweed; [3]): 45 | pest or weed control at 16 g/ha (ragweed; Ambrosia artemisiifolia, post-emergence, 16 g ai/ha, postemergence, 0 is no effect, 100 is complete control, read-out: Plant response rating (0 to 100), Ragweed): 20% | pest or weed control at 125 g/ha (ragweed; Ambrosia artemisiifolia, post-emergence, 125 g ai/ha, postemergence, visual rating, scale 0 to 100 (0 no effect, 100 complete control), read-out: Plant response rating, Ragweed): 80% | pest or weed control at 62 g/ha (ragweed; Ambrosia artemisiifolia, post-emergence, Postemergence, 62 g ai/ha, scale 0 to 100 (0 no effect, 100 complete control), 13 to 15 days, read-out: Plant response rating, Ragweed): 55% | Soybean plant response rating (soybean; [3]): 60 | Soybean plant response rating (crop injury, 0-100 scale) at 16 g/ha (soybean; Glycine max, post-emergence, 16 g ai/ha, postemergence, 0 is no effect, 100 is complete control): 40% | Soybean plant response rating (crop injury, 0-100 scale) at 125 g/ha (soybean; Glycine max, post-emergence, 125 g ai/ha, postemergence, visual rating, scale 0 to 100 (0 no effect, 100 complete control), read-out: Plant response rating, Soybean): 90% | Soybean plant response rating (crop injury, 0-100 scale) at 62 g/ha (soybean; Glycine max, post-emergence, Postemergence, 62 g ai/ha, scale 0 to 100 (0 no effect, 100 complete control), 13 to 15 days): 40% | Wheat plant response rating (wheat, winter; [3]): 0 | plant injury at 16 g/ha (wheat, winter; Triticum aestivum, post-emergence, 16 g ai/ha, postemergence, 0 is no effect, 100 is complete control, read-out: Plant response rating (0 to 100), Wheat): 0% | plant injury at 125 g/ha (wheat, winter; Triticum aestivum, post-emergence, 125 g ai/ha, postemergence, visual rating, scale 0 to 100 (0 no effect, 100 complete control), read-out: Plant response rating, Wheat): 0% | plant injury at 62 g/ha (wheat, winter; Triticum aestivum, post-emergence, Postemergence, 62 g ai/ha, scale 0 to 100 (0 no effect, 100 complete control), 13 to 15 days, read-out: Plant response rating, Wheat): 0% | pest or weed control at 250 g/ha (Heteranthera limosa; Heteranthera limosa, read-out: Plant response rating, Ducksalad): 75%

CC(C)c1cnn(-c2c(C#N)cccc2Oc2ncc(Cl)cn2)c1 [Compound 85]
Plant response rating, Barnyardgrass (barnyardgrass [1]; 125 g ai/ha, 0 to 100 scale where 0 is no effect and 100 is complete control): 90 | Plant response rating, Barnyardgrass (barnyardgrass [1]; 500 g ai/ha, 0 to 100 scale, 0 no effect, 100 complete control): 90 | Plant response rating (0 to 100), Morningglory (morningglory; 125 g ai/ha, postemergence): 40 | Plant response rating, Morningglory (morningglory; [4]): 60 | Plant response rating, Morningglory (morningglory; [5]): 25 | Plant response rating, Barnyardgrass (barnyardgrass [2]): 0 | Foxtail, Giant plant response rating (giant foxtail; [6]): 5 | Plant response rating (0 to 100), Foxtail, Giant (giant foxtail; 125 g ai/ha, postemergence): 15 | Plant response rating, Foxtail, Giant (giant foxtail; [4]): 10 | Plant response rating, Foxtail, Giant (giant foxtail; [5]): 10 | Plant response rating (0 to 100), Nutsedge, Yellow (yellow nutsedge; 125 g ai/ha, postemergence): 10 | Plant response rating, Nutsedge, Yellow (yellow nutsedge; [4]): 5 | Plant response rating, Nutsedge, Yellow (yellow nutsedge; [5]): 5 | Plant response rating, Rice (rice): 10 | Corn plant response rating (corn; [6]): 5 | Plant response rating (0 to 100), Corn (corn; 125 g ai/ha, postemergence): 10 | Plant response rating, Corn (corn; [4]): 5 | Plant response rating, Corn (corn; [5]): 10 | Plant response rating, Sedge, Umbrella (sedge, umbrella): 30 | Plant response rating, Wheat (wheat; 125 g ai/ha): 0 | Plant response rating, Wheat (wheat; 500 g ai/ha): 70 | Plant response rating (0 to 100), Ragweed (ragweed; 125 g ai/ha, postemergence): 65 | Plant response rating, Ragweed (ragweed; [4]): 20 | Plant response rating, Ragweed (ragweed; [5]): 20 | Plant response rating (0 to 100), Soybean (soybean; 125 g ai/ha, postemergence): 90 | Plant response rating, Soybean (soybean; [4]): 75 | Plant response rating, Soybean (soybean; [5]): 65 | Plant response rating (0 to 100), Wheat (wheat, winter; 125 g ai/ha, postemergence): 0 | Plant response rating, Wheat (wheat, winter; [4]): 0 | Plant response rating, Wheat (wheat, winter; [5]): 5 | Plant response rating, Ducksalad (Heteranthera limosa): 30
